Laboratory results taken from patent US6914045B2, “Glycopeptide antibiotics” (Wyeth Holdings Corporation, priority 2001, dated 2005).
Converted amounts (≈) assume the structure as drawn. Numbered stars: 1 amine (or outer) side, 2 acyl side, 3 side chain; on linkers, the order of the positions; unused ones are H or OH. Square brackets hold non-standard residues; d marks the D form. Peptide text beside a SMILES is read from it. * marks the point of attachment. ξ: configuration not given here. X1 = N=C1NCC(C(O)C(N[*:1])C(=O)[*:2])N1C1OC(CO)C(O)C(O)C1O; ξEnduracididine(βξ-OH,4'ξ) = N=C1NCC(C(O)C(N)C(=O)O)N1; X2 = OCC1OC(OC2C(CO)OC(*)C(O)C2O)C(O)C(O)C1O; Diphenylacetyl = O=C(C(c1ccccc1)c1ccccc1)*; ξPhe(βξ-Me) = CC(c1ccccc1)C(N)C(=O)O

Key:
Test in all cases: in vitro antibacterial evaluation, MIC by broth dilution
Format in all cases: cell-based
Escherichia coli = conditions: 18 hours at 35° C.
Staphylococcus sp. = test system: Staphylococcus sp.
Outline: (§1)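 Step 1: dilute antibiotic across 64-0.06 μg/mL in Muller-Hinton II […]. Step 2: inoculate at 5×10^5 CFU/mL.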

Enterococcus sp. = conditions: broth dilution, 18 hours at 35° C.
Outline: as §1

Streptococcus sp. = conditions: broth dilution, 18 hours at 35° C.
Outline: as §1

[1] = strain ATCC 29213; broth dilution, 18 hours at 35° C.
[2] = strain GC 1131; broth dilution, 18 hours at 35° C.
[3] = strain GC 4541; broth dilution, 18 hours at 35° C.
[4] = broth dilution, 18 hours at 35° C.

SMILES: CC(c1ccccc1)C1NC(=O)CNC(=O)C(CO)NC(=O)C(C(O)C2CNC(=N)N2C2OC(CO)C(O)C(O)C2O)NC(=O)C(C(O)C2CNC(=N)N2)NC(=O)C(Cc2ccc(OC3OC(CO)C(OC4OC5COC6(CCCCCCCCCCC6)OC5C(O)C4O)C(O)C3O)cc2)NC1=O (stereo not drawn) [Example 209]
- MIC Escherichia coli (ATCC 25922) (Escherichia coli): 64 µg/mL (≈ 43.8 µM)
- MIC Escherichia coli (GC 4559) (Escherichia coli): >64 µg/mL
- MIC Escherichia coli (GC 4560) (Escherichia coli): 4 µg/mL (≈ 2.74 µM)
- MIC Staphylococcus aureus (ATCC 29213) (Staphylococcus sp.; [1]): 4 µg/mL (≈ 2.74 µM)
- MIC Staphylococcus aureus (GC 1131) (Staphylococcus sp.; [2]): 2 µg/mL (≈ 1.37 µM)
- MIC Staphylococcus aureus (GC 4541) (Staphylococcus sp.; [3]): 2 µg/mL (≈ 1.37 µM)
- MIC Staphylococcus aureus-SMITH (GC 4543) (Staphylococcus sp.; strain GC 4543; broth dilution, 18 hours at 35° C.): 1 µg/mL (≈ 0.685 µM)
- MIC Coagulase Negative Staphylococcus (GC 4547) (Staphylococcus sp.; strain GC 4547; broth dilution, 18 hours at 35° C.): 4 µg/mL (≈ 2.74 µM)
- MIC Coagulase Negative Staphylococcus (GC 4548) (Staphylococcus sp.; strain GC 4548; broth dilution, 18 hours at 35° C.): 1 µg/mL (≈ 0.685 µM)
- MIC Coagulase Negative Staphylococcus (GC 4549) (Staphylococcus sp.; strain GC 4549; broth dilution, 18 hours at 35° C.): 1 µg/mL (≈ 0.685 µM)
- MIC Coagulase Negative Staphylococcus (GC 6257) (Staphylococcus sp.; strain GC 6257; broth dilution, 18 hours at 35° C.): 2 µg/mL (≈ 1.37 µM)
- MIC Enterococcus avium (GC 4558) (Enterococcus sp.): 4 µg/mL (≈ 2.74 µM)
- MIC Enterococcus faecalis (ATCC 29212) (Enterococcus sp.): 4 µg/mL (≈ 2.74 µM)
- MIC Enterococcus faecalis (GC 2242) (Enterococcus sp.): 4 µg/mL (≈ 2.74 µM)
- MIC Enterococcus faecalis (GC 6189) (Enterococcus sp.): 1 µg/mL (≈ 0.685 µM)
- MIC Enterococcus faecium (GC 2243) (Enterococcus sp.): 1 µg/mL (≈ 0.685 µM)
- MIC Enterococcus faecium (GC 4556) (Enterococcus sp.): 4 µg/mL (≈ 2.74 µM)
- MIC Enterococcus faecalis (ATCC 29212) (Enterococcus sp.; inoculum 5×10^5 CFU/mL, strain ATCC 29212): 4 µg/mL (≈ 2.74 µM)
- MIC Enterococcus faecalis (GC 2242) (Enterococcus sp.; inoculum 5×10^5 CFU/mL, strain GC 2242): 4 µg/mL (≈ 2.74 µM)
- MIC Enterococcus faecium (GC 2243) (Enterococcus sp.; inoculum 5×10^5 CFU/mL, strain GC 2243): 1 µg/mL (≈ 0.685 µM)
- MIC Enterococcus faecium (GC 4556) (Enterococcus sp.; inoculum 5×10^5 CFU/mL, strain GC 4556): 4 µg/mL (≈ 2.74 µM)
- MIC Enterococcus avium (GC 4558) (Enterococcus sp.; inoculum 5×10^5 CFU/mL, strain GC 4558): 4 µg/mL (≈ 2.74 µM)
- MIC Enterococcus faecalis (GC 6189) (Enterococcus sp.; inoculum 5×10^5 CFU/mL, strain GC 6189): 1 µg/mL (≈ 0.685 µM)
- MIC Streptococcus pneumoniae (ATCC 6301) (Streptococcus sp.): <0.06 µg/mL
- MIC Streptococcus pneumoniae (GC 1894) (Streptococcus sp.): <0.06 µg/mL
- MIC Streptococcus pneumoniae (ATCC 6301) (Streptococcus sp.; inoculum 5×10^5 CFU/mL, strain ATCC 6301): <0.06 µg/mL
- MIC Streptococcus pneumoniae (GC 1894) (Streptococcus sp.; inoculum 5×10^5 CFU/mL, strain GC 1894): <0.06 µg/mL

SMILES: CC(c1ccccc1)C1NC(=O)CNC(=O)C(COC(=O)C(c2ccccc2)c2ccccc2)NC(=O)C(C(O)C2CNC(=N)N2C2OC(CO)C(O)C(O)C2O)NC(=O)C(C(O)C2CNC(=N)N2)NC(=O)C(Cc2ccc(OC3OC(CO)C(OC4OC(CO)C(O)C(O)C4O)C(O)C3O)cc2)NC1=O (stereo not drawn) [Example 96a, Cyclo[glycyl-β-methylphenylalanyl-O-(4-O-hexopyranosylhexopyranosyl)tyrosyl-3-(2-iminoimidazolidin-4-yl)seryl-3-(3-hexopyranosyl-2-iminoimidazolidin-4-yl)seryl-O-(diphenylacetyl)-seryl]] (cyclo(G[ξPhe(βξ-Me)]Y(X2)[ξEnduracididine(βξ-OH,4'ξ)][X1]S(Diphenylacetyl)); configuration not given here)
- MIC Escherichia coli (ATCC 25922) (Escherichia coli): >128 µg/mL
- MIC Coagulase Negative Staphylococcus (GC 4547) (Staphylococcus sp.; [4]): 128 µg/mL (≈ 85.9 µM)
- MIC Coagulase Negative Staphylococcus (GC 4548) (Staphylococcus sp.; [4]): >128 µg/mL
- MIC Coagulase Negative Staphylococcus (GC 4549) (Staphylococcus sp.; [4]): 64 µg/mL (≈ 43 µM)
- MIC Coagulase Negative Staphylococcus (GC 4551) (Staphylococcus sp.; [4]): 128 µg/mL (≈ 85.9 µM)
- MIC Coagulase Negative Staphylococcus (ID-3941) (Staphylococcus sp.; [4]): 64 µg/mL (≈ 43 µM)
- MIC Staphylococcus aureus-SMITH (GC 4543) (Staphylococcus sp.; [4]): >128 µg/mL
- MIC Staphylococcus haemolyticus (GC 4546) (Staphylococcus sp.; [4]): 128 µg/mL (≈ 85.9 µM)
- MIC Staphylococcus haemolyticus (GC 4546) (Staphylococcus sp.; broth dilution, 18 hours at 35° C.; strain GC 4546): 128 µg/mL (≈ 85.9 µM)
- MIC Coagulase Negative Staphylococcus (GC 4547) (Staphylococcus sp.; broth dilution, 18 hours at 35° C.; strain GC 4547): 128 µg/mL (≈ 85.9 µM)
- MIC Coagulase Negative Staphylococcus (GC 4548) (Staphylococcus sp.; broth dilution, 18 hours at 35° C.; strain GC 4548): >128 µg/mL
- MIC Coagulase Negative Staphylococcus (GC 4549) (Staphylococcus sp.; broth dilution, 18 hours at 35° C.; strain GC 4549): 64 µg/mL (≈ 43 µM)
- MIC Coagulase Negative Staphylococcus (GC 4551) (Staphylococcus sp.; broth dilution, 18 hours at 35° C.; strain GC 4551): 128 µg/mL (≈ 85.9 µM)
- MIC Coagulase Negative Staphylococcus (ID-3941) (Staphylococcus sp.; broth dilution, 18 hours at 35° C.; strain ID-3941): 64 µg/mL (≈ 43 µM)
- MIC Staphylococcus aureus-SMITH (GC 4543) (Staphylococcus sp.; broth dilution, 18 hours at 35° C.; strain SMITH GC 4543): >128 µg/mL
- MIC Staphylococcus aureus (ATCC 29213) (Staphylococcus sp.; [1]): >128 µg/mL
- MIC Staphylococcus aureus (GC 1131) (Staphylococcus sp.; [2]): >128 µg/mL
- MIC Staphylococcus aureus (GC 4541) (Staphylococcus sp.; [3]): 128 µg/mL (≈ 85.9 µM)
- MIC Staphylococcus aureus (GC 4542) (Staphylococcus sp.; strain GC 4542; broth dilution, 18 hours at 35° C.): >128 µg/mL
- MIC Staphylococcus aureus (GC 4544) (Staphylococcus sp.; strain GC 4544; broth dilution, 18 hours at 35° C.): >128 µg/mL
- MIC Staphylococcus aureus (GC 4545) (Staphylococcus sp.; strain GC 4545; broth dilution, 18 hours at 35° C.): >128 µg/mL
- MIC Enterococcus avium (GC 4558) (Enterococcus sp.; Enterococcus avium (GC 4558)): >128 µg/mL
- MIC Enterococcus faecalis (ATCC 29212) (Enterococcus sp.; Enterococcus faecalis (ATCC 29212)): >128 µg/mL
- MIC Enterococcus faecalis (GC 2242) (Enterococcus sp.; Enterococcus faecalis (GC 2242)): >128 µg/mL
- MIC Enterococcus faecalis (GC 4552) (Enterococcus sp.; Enterococcus faecalis (GC 4552)): >128 µg/mL
- MIC Enterococcus faecalis (GC 4553) (Enterococcus sp.; Enterococcus faecalis (GC 4553)): >128 µg/mL
- MIC Enterococcus faecalis (GC 4554) (Enterococcus sp.; Enterococcus faecalis (GC 4554)): >128 µg/mL
- MIC Enterococcus faecium (GC 2243) (Enterococcus sp.; Enterococcus faecium (GC 2243)): 128 µg/mL (≈ 85.9 µM)
- MIC Enterococcus faecium (GC 4556) (Enterococcus sp.; Enterococcus faecium (GC 4556)): >128 µg/mL
- MIC Enterococcus faecium (GC 4557) (Enterococcus sp.; Enterococcus faecium (GC 4557)): 32 µg/mL (≈ 21.5 µM)
- MIC Enterococcus avium (GC 4558) (Enterococcus sp.): >128 µg/mL
- MIC Enterococcus faecalis (ATCC 29212) (Enterococcus sp.): >128 µg/mL
- MIC Enterococcus faecalis (GC 2242) (Enterococcus sp.): >128 µg/mL
- MIC Enterococcus faecalis (GC 4552) (Enterococcus sp.): >128 µg/mL
- MIC Enterococcus faecalis (GC 4553) (Enterococcus sp.): >128 µg/mL
- MIC Enterococcus faecalis (GC 4554) (Enterococcus sp.): >128 µg/mL
- MIC Enterococcus faecium (GC 2243) (Enterococcus sp.): 128 µg/mL (≈ 85.9 µM)
- MIC Enterococcus faecium (GC 4556) (Enterococcus sp.): >128 µg/mL
- MIC Enterococcus faecium (GC 4557) (Enterococcus sp.): 32 µg/mL (≈ 21.5 µM)
- MIC Streptococcus agalactiae (GC 4564) (Streptococcus sp.; Streptococcus agalactiae (GC 4564)): 32 µg/mL (≈ 21.5 µM)
- MIC Streptococcus pneumoniae (GC 4565) (Streptococcus sp.; Streptococcus pneumoniae (GC 4565)): 16 µg/mL (≈ 10.7 µM)
- MIC Streptococcus pyogenes (ID-3187) (Streptococcus sp.; Streptococcus pyogenes (ID-3187)): 32 µg/mL (≈ 21.5 µM)
- MIC Streptococcus agalactiae (GC 4564) (Streptococcus sp.): 32 µg/mL (≈ 21.5 µM)
- MIC Streptococcus pneumoniae (GC 4565) (Streptococcus sp.): 16 µg/mL (≈ 10.7 µM)
- MIC Streptococcus pyogenes (ID-3187) (Streptococcus sp.): 32 µg/mL (≈ 21.5 µM)
